According to ChEMBL document CHEMBL3872270, “Intelligent substance delivery into cells using cell-penetrating peptides” (Bioorg Med Chem Lett, 2017):

Assay: Cytotoxicity against human paclitaxel-resistant OVCA429 cells assessed as cell viability preincubated for 20 mins followed by wash and incubation in drug-free media for 72 hrs by MTT assay
Assay type: functional, cell-based

CC(=O)O[C@H]1C(=O)[C@@]2(C)[C@H]([C@H](OC(=O)c3ccccc3)[C@]3(O)C[C@H](OC(=O)[C@H](OC(=O)CCCSSCCCCCCOP(=O)(OCCCCCCNC(=N)N)OCCOP(=O)(OCCCCCCNC(=N)N)OCCOP(=O)(OCCCCCCNC(=N)N)OCCOP(=O)(OCCCCCCNC(=N)N)OCCOP(=O)(OCCCCCCNC(=N)N)OCCOP(=O)(OCCCCCCNC(=N)N)OCCOP(=O)(OCCCCCCNC(=N)N)OCCOP(=O)(OCCO)OCCCCCCNC(=N)N)[C@@H](NC(=O)c4ccccc4)c4ccccc4)C(C)=C1C3(C)C)[C@]1(OC(C)=O)CO[C@@H]1C[C@@H]2O (stereo partly specified)
EC50: 1.4 µM
